The NIST ThermoML archive (doi:10.1016/j.jct.2005.09.003)
Numbers after ± are expanded uncertainties.

Assay: xn = mol fraction of the nth substance listed
Conditions: Liquid, x1 = 1

CCCCCCCC [octane] + CCCCCCCl
mass density [kg/m3]
Conditions | 298.15 K | 308.15 K | 318.15 K | 328.15 K
100 kPa | 698.64 ± 0.61 | 690.43 ± 0.63 | 682.47 ± 0.65 | 674.53 ± 0.66
2130 kPa | 700.14 ± 0.71 | 692.18 ± 0.73 | 684.48 ± 0.74 | 676.49 ± 0.76
4150 kPa | 701.87 ± 0.8 | 694 ± 0.82 | 686.45 ± 0.83 | 678.56 ± 0.85
6180 kPa | 703.56 ± 0.88 | 695.79 ± 0.9 | 688.29 ± 0.92 | 680.59 ± 0.95
8210 kPa | 705.17 ± 0.97 | 697.53 ± 0.99 | 690.17 ± 1 | 682.57 ± 1
10230 kPa | 706.78 ± 1.1 | 699.24 ± 1.1 | 691.97 ± 1.1 | 684.51 ± 1.1
11250 kPa | 707.58 ± 1.1 | 700.07 ± 1.1 | 692.85 ± 1.1 | 685.44 ± 1.2
12260 kPa | 708.37 ± 1.1 | 700.88 ± 1.2 | 693.77 ± 1.2 | 686.38 ± 1.2
14290 kPa | 709.9 ± 1.2 | 702.55 ± 1.2 | 695.49 ± 1.3 | 688.23 ± 1.3
16310 kPa | 711.41 ± 1.3 | 704.13 ± 1.3 | 697.2 ± 1.4 | 690.03 ± 1.4
18340 kPa | 712.9 ± 1.4 | 705.71 ± 1.4 | 698.86 ± 1.5 | 691.76 ± 1.5
20370 kPa | 714.36 ± 1.5 | 707.23 ± 1.5 | 700.47 ± 1.5 | 693.5 ± 1.6
22390 kPa | 715.78 ± 1.6 | 708.76 ± 1.6 | 702.07 ± 1.6 | 695.17 ± 1.7
24420 kPa | 717.18 ± 1.6 | 710.22 ± 1.7 | 703.61 ± 1.7 | 696.82 ± 1.8
26450 kPa | 718.56 ± 1.7 | 711.66 ± 1.8 | 705.13 ± 1.8 | 698.41 ± 1.8
28470 kPa | 719.9 ± 1.8 | 713.09 ± 1.8 | 706.66 ± 1.9 | 699.98 ± 1.9
29490 kPa | 720.57 ± 1.8 | 713.77 ± 1.9 | 707.38 ± 1.9 | 700.75 ± 2
30500 kPa | 721.22 ± 1.9 | 714.47 ± 1.9 | 708.13 ± 2 | 701.53 ± 2
32530 kPa | 722.53 ± 2 | 715.84 ± 2 | 709.54 ± 2 | 703.01 ± 2.1
34550 kPa | 723.82 ± 2 | 717.18 ± 2.1 | 710.96 ± 2.1 | 704.5 ± 2.2
36580 kPa | 725.06 ± 2.1 | 718.5 ± 2.2 | 712.33 ± 2.2 | 705.96 ± 2.2
38600 kPa | 726.32 ± 2.2 | 719.82 ± 2.2 | 713.68 ± 2.3 | 707.36 ± 2.3
39620 kPa | 726.94 ± 2.2 | 720.45 ± 2.3 | 714.38 ± 2.3 | 708.06 ± 2.4
